From US7919493B2, “Anititumoral ecteinascidin derivatives” (Pharma Mar, S.A., priority 2001, dated 2011)
In brackets after ≈: the same amount, converted by molar mass.

How the values were obtained:
Format in all cases: cell-based
[1] = tested on: HT-29 (monolayer culture of a human colon carcinoma); assay: Cytotoxic activity screening, HT-29 cells; details: three days of incubation, Crystal Violet; for IC50: Homo sapiens, HT-29, 72 h
Protocol: (§1) Cell Cultures. Cells were maintained in logarithmic phase of growth in Eagle's Minimum Essential Medium, with Earle's Balanced Salts, with 2.0 mM L-glutamine, with non-essential amino acids, without sodium bicarbonate (EMEM/neaa); supplemented with 10% Fetal Calf Serum (FCS), 10^−2 M sodium bicarbonate and 0.1 g/l penicillin-G+streptomycin sulfate.
(§2) A separate set of cultures without drug was seeded as control growth to ensure that cells remained in exponential phase of growth. All determinations were carried out in duplicate. After three days of incubation at 37° C., 10% CO2 in a 98% humid atmosphere, the wells were stained with 0.1% Crystal Violet. An approximately IC50 was determined by comparing the growth in wells with drug to the growth in wells control.

[2] = tested on: MEL-28 (monolayer culture of a human melanoma); assay: Cytotoxic activity screening, MEL-28 cells; details: three days of incubation, Crystal Violet; for IC50: Homo sapiens, SK-MEL-28, 72 h
Protocol: as §1
(§3) A simple screening procedure has been carried out to determine and compare the antitumour activity of these compounds, using an adapted form of the method described by Bergeron et al (1984). The tumour cell line employed have been P-388 (suspension culture of a lymphoid neoplasm from DBA/2 mouse), A-549 (monolayer culture of a human lung carcinoma), HT-29 (monolayer culture of a human colon carcinoma) and MEL-28 (monolayer culture of a human melanoma).
as §2, with “A-549, HT-29 and MEL-28 were seeded into 16 mm wells at 2×10^4 cells per well in 1 ml aliquots of MEM 10FCS containing the indicated concentration of drug. A separate” for “A separate”

[3] = tested on: P-388 (suspension culture of a lymphoid neoplasm from DBA/2 mouse); assay: Cytotoxic activity screening, P-388 cells; details: three days of incubation, approximate IC50 vs control growth; for IC50: Mus musculus, P388, 72 h
Protocol: as §1, §3
P-388 cell were seeded into 16 mm wells at 1×10^4 cells per well in 1 ml aliquots of MEM 5FCS containing the indicated concentration of drug. A separate set of cultures without drug was seeded as control growth to ensure that cells remained in exponential phase of growth. All determinations were carried out in duplicate.

[4] = tested on: A-549 (monolayer culture of a human lung carcinoma); assay: Cytotoxic activity screening, A-549 cells; details: three days of incubation, Crystal Violet; for IC50: Homo sapiens, A549, 72 h
Protocol: as §1, §2

DU-145 = assay: Cytotoxic activity screening, DU-145 cells; details: for IC50: Homo sapiens, DU-145, DU-145 cells; for IC50 DU-145: DU-145 cells
Protocol: [The source words this procedure for another cell line and reports this cell line under the same test.] as §1, §3
Examples of biological activities of the compounds described in the present application are in Table IV (IC50 (ng/mL)) on the following pages.

[5] = approximate IC50, listed as 18a*

Structure (SMILES) | IC50 ([1]; approximate IC50) [ng/mL] | IC50 ([2]; approximate IC50) [ng/mL] | IC50 [3] [ng/mL] | IC50 ([4]; approximate IC50) [ng/mL] | IC50 (DU-145) [ng/mL] | other results
COc1c(C)cc2c(c1O)[C@@H]1C3[C@@H]4SC[C@H](NC(=O)C(C)N)C(=O)OC[C@@H](c5c6c(c(C)c(OC(C)=O)c54)OCO6)N3[C@@H](C#N)[C@H](C2)N1C (stereo partly shown) [Compound 3v] | 1 (≈ 1.44 nM) | 1 (≈ 1.44 nM) | 1 (≈ 1.44 nM) | 1 (≈ 1.44 nM) | 1 (≈ 1.44 nM) | –
COc1c(C)cc2c(c1O)[C@@H]1C3[C@@H]4SC[C@@H](OC(C)=O)C(=O)OC[C@@H](c5c6c(c(C)c(OC(C)=O)c54)OCO6)N3[C@@H](C#N)[C@H](C2)N1C (stereo partly shown) [Compound 17a] | – | – | – | – | – | IC50 HT-29 ([1]; approximate IC50): 0.1 ng/mL (≈ 0.15 nM); IC50 MEL-28 ([2]; approximate IC50): 0.1 ng/mL (≈ 0.15 nM); IC50 P-388 [3]: 0.1 ng/mL (≈ 0.15 nM); IC50 A-549 ([4]; approximate IC50): 0.1 ng/mL (≈ 0.15 nM); IC50 DU-145 (DU-145): 0.1 ng/mL (≈ 0.15 nM)
COc1c(C)cc2c(c1O)[C@@H]1C3[C@@H]4SC[C@@H](OC(C)=O)C(=O)OC[C@@H](c5c6c(c(C)c(OC(C)=O)c54)OCO6)N3[C@@H](C#N)[C@H](C2)N1C (stereo partly shown) [Compound 18a*] | – | – | – | – | – | IC50 HT-29 [1, 5]: 1.0 ng/mL (≈ 1.5 nM); IC50 MEL-28 [2, 5]: 1.0 ng/mL (≈ 1.5 nM); IC50 P-388 ([3]; listed as 18a*): 1.0 ng/mL (≈ 1.5 nM); IC50 A-549 [4, 5]: 1.0 ng/mL (≈ 1.5 nM); IC50 DU-145 (DU-145; listed as 18a*): 1.0 ng/mL (≈ 1.5 nM)
COc1c(C)cc2c(c1O)[C@@H]1C3[C@@H]4SC[C@H](NC(=O)C(C)NC(=O)/C=C/c5ccccc5)C(=O)OC[C@@H](c5c6c(c(C)c(OC(C)=O)c54)OCO6)N3[C@@H](O)[C@H](C2)N1C (stereo partly shown) [Compound 4x] | 1 (≈ 1.23 nM) | 1 (≈ 1.23 nM) | 1 (≈ 1.23 nM) | 1 (≈ 1.23 nM) | 1 (≈ 1.23 nM) | –
CCCC(=O)N[C@H]1CS[C@@H]2c3c(OC(C)=O)c(C)c4c(c3[C@H](COC1=O)N1C2[C@H]2c3c(cc(C)c(OC)c3O)C[C@@H]([C@@H]1O)N2C)OCO4 (stereo partly shown) [Compound 4c] | 0.1 (≈ 0.146 nM) | 0.1 (≈ 0.146 nM) | 0.1 (≈ 0.146 nM) | 0.1 (≈ 0.146 nM) | 0.1 (≈ 0.146 nM) | –
CCCCCCCCCCCCCCCC(=O)O[C@H]1CS[C@@H]2c3c(OC(C)=O)c(C)c4c(c3[C@H](COC1=O)N1C2[C@H]2c3c(cc(C)c(OC)c3O)C[C@@H]([C@@H]1C#N)N2C)OCO4 (stereo partly shown) [Compound 17f] | > 1000 | > 1000 | > 1000 | > 1000 | > 1000 | –
COc1c(C)cc2c(c1O)[C@@H]1C3[C@@H]4SC[C@H](NC(=O)CCCCC5SCC6NC(=O)NC65)C(=O)OC[C@@H](c5c6c(c(C)c(OC(C)=O)c54)OCO6)N3[C@@H](O)[C@H](C2)N1C (stereo partly shown) [Compound 4k] | 10 (≈ 11.9 nM) | 10 (≈ 11.9 nM) | 10 (≈ 11.9 nM) | 10 (≈ 11.9 nM) | 10 (≈ 11.9 nM) | –
COc1c(C)cc2c(c1O)[C@@H]1C3[C@@H]4SC[C@H](NC(=O)/C=C/c5ccc(C(F)(F)F)cc5)C(=O)OC[C@@H](c5c6c(c(C)c(OC(C)=O)c54)OCO6)N3[C@@H](C#N)[C@H](C2)N1C (stereo partly shown) [Compound 3i] | 5 (≈ 6.09 nM) | 5 (≈ 6.09 nM) | 5 (≈ 6.09 nM) | 5 (≈ 6.09 nM) | 5 (≈ 6.09 nM) | –
COc1c(C)cc2c(c1O)[C@@H]1C3[C@@H]4SC[C@H](NC(=O)C(C)NC(C)=O)C(=O)OC[C@@H](c5c6c(c(C)c(OC(C)=O)c54)OCO6)N3[C@@H](C#N)[C@H](C2)N1C (stereo partly shown) [Compound 3w] | 1 (≈ 1.36 nM) | 1 (≈ 1.36 nM) | 1 (≈ 1.36 nM) | 1 (≈ 1.36 nM) | 1 (≈ 1.36 nM) | –
COc1c(C)cc2c(c1O)[C@@H]1C3[C@@H]4SC[C@H](NC(=O)CC(C)C)C(=O)OC[C@@H](c5c6c(c(C)c(OC(C)=O)c54)OCO6)N3[C@@H](C#N)[C@H](C2)N1C (stereo partly shown) [Compound 3d] | 0.1 (≈ 0.141 nM) | 0.1 (≈ 0.141 nM) | 0.1 (≈ 0.141 nM) | 0.1 (≈ 0.141 nM) | 0.1 (≈ 0.141 nM) | –
COc1c(C)cc2c(c1O)[C@@H]1C3[C@@H]4SC[C@H](NC(=O)CCC(=O)O)C(=O)OC[C@@H](c5c6c(c(C)c(OC(C)=O)c54)OCO6)N3[C@@H](C#N)[C@H](C2)N1C (stereo partly shown) [Compound 3l] | 100 (≈ 138 nM) | 100 (≈ 138 nM) | 100 (≈ 138 nM) | 100 (≈ 138 nM) | 100 (≈ 138 nM) | –
CCCC(=O)N[C@H]1CS[C@@H]2c3c(OC(C)=O)c(C)c4c(c3[C@H](COC1=O)N1C2[C@H]2c3c(cc(C)c(OC)c3O)C[C@@H]([C@@H]1C#N)N2C)OCO4 (stereo partly shown) [Compound 3c] | 0.1 (≈ 0.144 nM) | 0.1 (≈ 0.144 nM) | 0.1 (≈ 0.144 nM) | 0.1 (≈ 0.144 nM) | 0.1 (≈ 0.144 nM) | –
COc1c(C)cc2c(c1O)[C@@H]1C3[C@@H]4SCC(NCc5ccccc5)C(=O)OC[C@@H](c5c6c(c(C)c(OC(C)=O)c54)OCO6)N3[C@@H](C#N)[C@H](C2)N1C (stereo partly shown) [Compound 3n] | 0.5 (≈ 0.701 nM) | 0.5 (≈ 0.701 nM) | 0.5 (≈ 0.701 nM) | 0.5 (≈ 0.701 nM) | 0.5 (≈ 0.701 nM) | –
COc1c(C)cc2c(c1O)[C@@H]1C3[C@@H]4SC[C@H](NC(=O)/C=C/c5ccc(C(F)(F)F)cc5)C(=O)OC[C@@H](c5c6c(c(C)c(OC(C)=O)c54)OCO6)N3[C@@H](O)[C@H](C2)N1C (stereo partly shown) [Compound 4i] | 1 (≈ 1.23 nM) | 1 (≈ 1.23 nM) | 1 (≈ 1.23 nM) | 1 (≈ 1.23 nM) | 1 (≈ 1.23 nM) | –
COC(=O)c1ccccc1C(=O)N[C@H]1CS[C@@H]2c3c(OC(C)=O)c(C)c4c(c3[C@H](COC1=O)N1C2[C@H]2c3c(cc(C)c(OC)c3O)C[C@@H]([C@@H]1C#N)N2C)OCO4 (stereo partly shown) [Compound 6] | 1 (≈ 1.27 nM) | 1 (≈ 1.27 nM) | 1 (≈ 1.27 nM) | 1 (≈ 1.27 nM) | 1 (≈ 1.27 nM) | –
COc1c(C)cc2c(c1O)[C@@H]1C3[C@@H]4SC[C@H](NC(=O)C(NC(=O)C(C)N)C(C)C)C(=O)OC[C@@H](c5c6c(c(C)c(OC(C)=O)c54)OCO6)N3[C@@H](C#N)[C@H](C2)N1C (stereo partly shown) [Compound 3s] | 1 (≈ 1.26 nM) | 1 (≈ 1.26 nM) | 1 (≈ 1.26 nM) | 1 (≈ 1.26 nM) | 1 (≈ 1.26 nM) | –
CCCCCCCCCCCCCCCC(=O)N[C@H]1CS[C@@H]2c3c(OC(C)=O)c(C)c4c(c3[C@H](COC1=O)N1C2[C@H]2c3c(cc(C)c(OC)c3O)C[C@@H]([C@@H]1O)N2C)OCO4 (stereo partly shown) [Compound 4f] | 100 (≈ 117 nM) | 100 (≈ 117 nM) | 100 (≈ 117 nM) | 100 (≈ 117 nM) | 100 (≈ 117 nM) | –
COc1c(C)cc2c(c1O)[C@@H]1C3[C@@H]4SC[C@H](OC(=O)/C=C/c5ccccc5)C(=O)OC[C@@H](c5c6c(c(C)c(OC(C)=O)c54)OCO6)N3[C@@H](C#N)[C@H](C2)N1C (stereo partly shown) [Compound 17h] | 0.1 (≈ 0.133 nM) | 0.1 (≈ 0.133 nM) | 0.1 (≈ 0.133 nM) | 0.1 (≈ 0.133 nM) | 0.1 (≈ 0.133 nM) | –
COc1c(C)cc2c(c1O)[C@@H]1C3[C@@H]4SCC(NC(=O)C(N)C(C)C)C(=O)OC[C@@H](c5c6c(c(C)c(OC(C)=O)c54)OCO6)N3[C@@H](O)[C@H](C2)N1C (stereo partly shown) [Compound 4p] | 0.5 (≈ 0.701 nM) | 0.5 (≈ 0.701 nM) | 0.5 (≈ 0.701 nM) | 0.5 (≈ 0.701 nM) | 0.5 (≈ 0.701 nM) | –
COc1c(C)cc2c(c1O)[C@@H]1C3[C@@H]4SC[C@H](NC(=O)CC(C)C)C(=O)OC[C@@H](c5c6c(c(C)c(OC(C)=O)c54)OCO6)N3[C@@H](O)[C@H](C2)N1C (stereo partly shown) [Compound 4d] | 0.5 (≈ 0.717 nM) | 0.5 (≈ 0.717 nM) | 0.5 (≈ 0.717 nM) | 0.5 (≈ 0.717 nM) | 0.5 (≈ 0.717 nM) | –
COc1c(C)cc2c(c1O)[C@@H]1C3[C@@H]4SC[C@H](NC(=O)C(C)N)C(=O)OC[C@@H](c5c6c(c(C)c(OC(C)=O)c54)OCO6)N3[C@@H](O)[C@H](C2)N1C (stereo partly shown) [Compound 4v] | 1 (≈ 1.46 nM) | 1 (≈ 1.46 nM) | 1 (≈ 1.46 nM) | 1 (≈ 1.46 nM) | 1 (≈ 1.46 nM) | –
COc1c(C)cc2c(c1O)[C@@H]1C3[C@@H]4SC[C@H](NC(=O)C(C)NC(=O)/C=C/c5ccccc5)C(=O)OC[C@@H](c5c6c(c(C)c(OC(C)=O)c54)OCO6)N3[C@@H](C#N)[C@H](C2)N1C (stereo partly shown) [Compound 3x] | 0.1 (≈ 0.121 nM) | 0.1 (≈ 0.121 nM) | 0.1 (≈ 0.121 nM) | 0.1 (≈ 0.121 nM) | 0.1 (≈ 0.121 nM) | –
COc1c(C)cc2c(c1O)[C@@H]1C3[C@@H]4SC[C@H](NC(=O)/C=C/c5ccccc5)C(=O)OC[C@@H](c5c6c(c(C)c(OC(C)=O)c54)OCO6)N3[C@@H](O)[C@H](C2)N1C (stereo in doubt) [Compound 4h] | 0.5 (≈ 0.672 nM) | 0.5 (≈ 0.672 nM) | 0.5 (≈ 0.672 nM) | 0.5 (≈ 0.672 nM) | 0.5 (≈ 0.672 nM) | –
